Laboratory results published in patent US20250145665A1, “MACROCYCLIC PEPTIDES USEFUL AS MODULATORS OF TNF ALPHA” (Bristol-Myers Squibb Company, priority 2023, published 2025).
Starred links: 1 amine or outer side, 2 acyl side, 3 side chain; linkers in the order of their positions; H or OH if unused. Positions of bridges follow the written chain, without caps; N, C: chain ends. Non-standard residues stand in square brackets, D forms with d. Residues, ends and D or L forms follow the SMILES beside them. *: point of attachment. Bip(4'-NHBz) = N[C@@H](Cc1ccc(-c2ccc(NC(=O)c3ccccc3)cc2)cc1)C(=O)O; Bip(4'-NH) = O=C([C@H](Cc1ccc(-c2ccc(N[*:3])cc2)cc1)N[*:1])[*:2]; dArg(ω-(3-HO-benzyl)) = N=C(NCCC[C@@H](N)C(=O)O)NCc1cccc(O)c1; Bip(4'-CONHMe) = CNC(=O)c1ccc(-c2ccc(C[C@H](N)C(=O)O)cc2)cc1; Indazole3carbonyl(1-CH2COOH) = O=C(O)Cn1nc(C(=O)*)c2ccccc21; Bip(4'-COOH) = N[C@@H](Cc1ccc(-c2ccc(C(=O)O)cc2)cc1)C(=O)O; X29 = N=C(NCCC[C@@H](N[*:1])C(=O)[*:2])NCCc1ccc(F)c(F)c1; Ala(imidazol-2-yl) = N[C@@H](Cc1ncc[nH]1)C(=O)O; Ala(morpholin-4-yl) = N[C@@H](CN1CCOCC1)C(=O)O; Bip = N[C@@H](Cc1ccc(-c2ccccc2)cc1)C(=O)O; Phe(4-F) = N[C@@H](Cc1ccc(F)cc1)C(=O)O; h4Pal = N[C@@H](CCc1ccncc1)C(=O)O; 4Pal = N[C@@H](Cc1ccncc1)C(=O)O; Tic = O=C(O)[C@@H]1Cc2ccccc2CN1; Cha = N[C@@H](CC1CCCCC1)C(=O)O; Tle = CC(C)(C)[C@H](N)C(=O)O; Sar = CNCC(=O)O

These compounds were tested against TNFα (Homo sapiens, UniProt P01375) (assay: TNF-Induced HEK-Blue Assay). Details: not given.
TNFα, sequence (P01375 77-233 limits assumed): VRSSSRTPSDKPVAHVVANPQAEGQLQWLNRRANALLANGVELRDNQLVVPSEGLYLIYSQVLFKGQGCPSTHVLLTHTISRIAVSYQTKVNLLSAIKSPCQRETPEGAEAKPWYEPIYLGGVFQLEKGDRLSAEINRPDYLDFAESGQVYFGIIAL
Type: cell-based

Row | Structure (SMILES) | IC50 [nM]
1 | CNC(=O)c1ccc(-c2ccc(C[C@@H]3NC(=O)[C@H](CN4CCOCC4)NC(=O)CSC[C@@H](C(=O)NCC(N)=O)NC(=O)[C@H](CC(C)C)NC(=O)[C@H](CCCNC(=N)N)NC(=O)[C@H](C(C)C)NC(=O)[C@@H]4CCCN4C(=O)[C@H](C(C)C)NC(=O)[C@@H](CCCNC(=N)NCCc4ccc(F)c(F)c4)NC(=O)[C@H](CC(=O)O)NC(=O)[C@@H]4CCCN4C(=O)CN(C)C(=O)[C@H](Cc4ccc(-c5ccc(NC(=O)c6nn(CC(=O)O)c7ccccc67)cc5)cc4)NC3=O)cc2)cc1 [Example 424] ({CH2CO}-[Ala(morpholin-4-yl)][Bip(4'-CONHMe)][Bip(4'-NH)](Indazole3carbonyl(1-CH2COOH))[Sar]PD[X29]VPVRLCG-NH2; thioether N-13) | 50 to 200
2 | CC[C@H](C)[C@@H]1NC(=O)[C@@H]2CCCN2C(=O)[C@H]([C@@H](C)CC)NC(=O)[C@@H](CCCNC(=N)N)NC(=O)[C@H](CC(=O)O)NC(=O)[C@H](Cc2ccccc2)NC(=O)CN(C)C(=O)[C@H](Cc2ccc(-c3ccc(NC(=O)c4ccccc4)cc3)cc2)NC(=O)[C@H](Cc2ccc(-c3ccc(C(=O)O)cc3)cc2)NC(=O)[C@H](C(C)(C)C)NC(=O)CSC[C@@H](C(=O)NCC(N)=O)NC(=O)[C@H](CC(C)C)NC(=O)[C@H](Cc2cnc[nH]2)NC1=O [Example 350] ({CH2CO}-[Tle][Bip(4'-COOH)][Bip(4'-NHBz)][Sar]FD[dR]IPIHLCG-NH2; thioether N-13) | < 50
3 | CC[C@H](C)[C@@H]1NC(=O)[C@@H](CCCNC(=N)NCc2cccc(O)c2)NC(=O)[C@H](CC(=O)O)NC(=O)[C@H](Cc2cnc[nH]2)NC(=O)CN(C)C(=O)[C@H](Cc2ccc(-c3ccc(NC(=O)c4nn(CC(=O)O)c5ccccc45)cc3)cc2)NC(=O)[C@H](Cc2ccc(-c3ccc(C(=O)O)cc3)cc2)NC(=O)[C@H](CC2CCCCC2)NC(=O)CSC[C@@H](C(=O)NCC(N)=O)NC(=O)[C@H](CC(C)C)NC(=O)[C@H](Cc2ncc[nH]2)NC(=O)[C@H](C(C)C)NC(=O)[C@@H]2Cc3ccccc3CN2C1=O [Example 561] ({CH2CO}-[Cha][Bip(4'-COOH)][Bip(4'-NH)](Indazole3carbonyl(1-CH2COOH))[Sar]HD[dArg(ω-(3-HO-benzyl))]I[Tic]V[Ala(imidazol-2-yl)]LCG-NH2; thioether N-13) | < 50

Same assay, conditions: HEK-Blue-CD40L cells, NF-kB-driven secreted alkaline phosphatase reporter; TNFα 0.5 ng/ml; 18 h; read-out: TNF induced HEK-Blue assay IC50 value

Row | IC50 [nM] | Structure (SMILES)
4 | 200 to 2000 | CC(C)C[C@@H]1NC(=O)[C@H](CCCNC(=N)N)NC(=O)[C@H](C(C)C)NC(=O)[C@@H]2CCCN2C(=O)[C@H](Cc2ccncc2)NC(=O)[C@H](CCCNC(=N)N)NC(=O)[C@H](CC(=O)O)NC(=O)[C@@H]2CCCN2C(=O)CN(C)C(=O)[C@H](Cc2ccc(-c3ccccc3)cc2)NC(=O)[C@H](Cc2ccc(-c3ccccc3)cc2)NC(=O)[C@H](Cc2ccccc2)NC(=O)CSC[C@@H](C(=O)NCC(N)=O)NC1=O [Example 25] ({CH2CO}-F[Bip][Bip][Sar]PDR[4Pal]PVRLCG-NH2; thioether N-13)
5 | 200 to 2000 | CC(C)C[C@@H]1NC(=O)[C@H](CCCNC(=N)N)NC(=O)[C@H](C(C)C)NC(=O)[C@@H]2CCCN2C(=O)[C@H](Cc2ccc(F)cc2)NC(=O)[C@H](CCCNC(=N)N)NC(=O)[C@H](CC(=O)O)NC(=O)[C@@H]2CCCN2C(=O)CN(C)C(=O)[C@H](Cc2ccc(-c3ccccc3)cc2)NC(=O)[C@H](Cc2ccc(-c3ccccc3)cc2)NC(=O)[C@H](Cc2ccccc2)NC(=O)CSC[C@@H](C(=O)NCC(N)=O)NC1=O [Example 23] ({CH2CO}-F[Bip][Bip][Sar]PDR[Phe(4-F)]PVRLCG-NH2; thioether N-13)
6 | 200 to 2000 | CC(C)C[C@@H]1NC(=O)[C@H](CCCNC(=N)N)NC(=O)[C@H](C(C)C)NC(=O)[C@H](C(C)C)NC(=O)[C@H](C(C)C)NC(=O)[C@H](CCCNC(=N)N)NC(=O)[C@H](CC(=O)O)NC(=O)[C@@H]2CCCN2C(=O)CN(C)C(=O)[C@H](Cc2ccc(-c3ccccc3)cc2)NC(=O)[C@H](Cc2ccc(-c3ccccc3)cc2)NC(=O)[C@H](Cc2ccccc2)NC(=O)CSC[C@@H](C(=O)NCC(N)=O)NC1=O [Example 17] ({CH2CO}-F[Bip][Bip][Sar]PDRVVVRLCG-NH2; thioether N-13)
7 | 50 to 200 | CC(C)C[C@@H]1NC(=O)[C@H](Cc2ccc(O)cc2)NC(=O)[C@H](C(C)C)NC(=O)[C@@H]2CCCN2C(=O)[C@H](C(C)C)NC(=O)[C@@H](CCCNC(=N)N)NC(=O)[C@H](CC(=O)O)NC(=O)[C@H](Cc2ccc(O)cc2)NC(=O)CN(C)C(=O)[C@H](Cc2ccc(-c3ccccc3)cc2)NC(=O)[C@H](Cc2ccc(-c3ccc(C(=O)O)cc3)cc2)NC(=O)[C@H](CCc2ccncc2)NC(=O)CSC[C@@H](C(=O)NCC(N)=O)NC1=O [Example 186] ({CH2CO}-[h4Pal][Bip(4'-COOH)][Bip][Sar]YD[dR]VPVYLCG-NH2; thioether N-13)
